Patent US20090005326A1, “SINGLE DOSE ROXITHROMYCIN” (priority 2007, published 2009)
Where two headings read alike, the source gives them in different places.

Assays:
[1] = in humans; cited from earlier work
[2] = Elimination T1/2 of roxithromycin in a cat; assay type: in vivo; conditions: administered to a cat; route and dose not stated
Protocol: The phrase “elimination half life” or “T1/2,” as used herein, has the conventional meaning used in pharmacokinetics, i.e., the time taken for the maximum plasma concentration (Cmax) of a drug to reduce by 50%.
Therefore, the rate of clearance of roxithromycin from a cat, i.e., as measured by the T1/2, is much slower than when roxithromycin is administered to, for example, a human. The unexpectedly slow rate of clearance (long T1/2) allows bacterial infections in cats to be advantageously treated with a single administration of roxithromycin administered either orally or by injection. Treating a bacterial infection using a single dose of roxithromycin is simpler, more cost effective, and results in better patient compliance. Furthermore, single dose administration of roxithromycin is believed to reduce the risk of microbial strains emerging that are resistant to roxithromycin. Single dose administration of roxithromycin by injection is advantageous because administration by injection bypasses liver metabolism and the single administration precludes multiple visits to the veterinarian. Single dose administration orally, however, is less painful and can permit administration without requiring a visit to the veterinarian.

[3] = literature; cited from earlier work
[4] = Serum concentration after single subcutaneous injection to cats; assay type: in vivo; conditions: cat, single subcutaneous injection 10 mg/kg, 200 mg/mL in 10% propylene glycol in glycerol formal
Protocol: Five cats (mixed breed of various sizes, males and female, approximately 4 kg) were administered 10 mg/kg of a roxithromycin composition by subcutaneous injection between the shoulder blades. The roxithromycin composition was prepared by weighing 5.128 g of roxithromycin (purity 97.5%) into a 25 mL volumetric flask, adding 2.5 mL of propylene glycol, and filling to volume with stabilized glycerol formal.
Cats were kept in a stainless steel, suspended, wire bottom cage, at least 3′×3′, provided with a litter box in an environmentally controlled room (22±3° C., a relative humidity of 30-80%, a 12 hour light/dark schedule, and room ventilation of approximately 10-12 air changes per hour.) Tap water was available ad libitum and the cats were fed PMI Feline Lab Diet #5003 or other commercial product.
Blood samples were collected on Day-1 and approximately 1 mL of whole blood was collected at 1, 8, 24, 36, 48, 60, and 72 hr following dosing and twice-daily thereafter through study termination on day 10. […] The dose site was monitored daily during the study.
The serum was analyzed by high pressure liquid chromatograph (“HPLC”) using the following procedure: […]
The serum concentration of roxithromycin was then determined by comparing the area under the curve for the HPLC peak corresponding to roxithromycin to a standard curve of peak areas v. known concentrations of roxithromycin in serum. […]

Escherichia coli = assay: MIC, single disc method; assay type: cell-based
Protocol: (§1) Typically, to be effective, the minimum inhibitory concentration of the roxithromycin against a specific bacteria should be less than 10 μg/mL, preferably less than 5 μg/mL, more preferably less than 2 μg/mL, even more preferably less than 1 μg/mL, and most preferably less than 0.5 μg/mL. The activity of roxithromycin against a bacteria can be determined using standard dilution tests. For example, the minimum inhibitory concentrations can be determined using the disk diffusion susceptibility testing method described in Clinical Microbiology Procedures Handbook, volume 1, edited by Henry D. Isenberg, American Society for Microbiology, 1992, section 5.1 or the well known method of Bauer et al. “Antibiotic Susceptibility Testing by a Standardized Single Disc Method,” Amer. J. Clin. Pathol., 45, p. 493-496.
(§2) FIG. 1 provides a graphical representation of the average plasma serum concentration of roxithromycin as a function of time for the 5 cats that were administered a single dose of roxithromycin by subcutaneous injection at a dose of 10 mg/kg as a formulation containing 200 mg/mL of roxithromycin in 10% propylene glycol in glycerol formal. […] J. Clin. Pathol., 45, p. 493-496.

Enterococcus faecalis = assay: MIC, single disc method; assay type: cell-based
Protocol: as §1, §2

Bacillus subtilis = assay: MIC, single disc method; assay type: cell-based
Protocol: as §1, §2

Clostridium perfringes = assay: MIC, single disc method; assay type: cell-based
Protocol: as §1, §2

Streptococcus pneumoniae = assay: MIC, single disc method; assay type: cell-based
Protocol: as §1, §2

Streptococcus pyogenes = assay: MIC, single disc method; assay type: cell-based
Protocol: as §1, §2

Pasteurella multocida = assay: MIC, single disc method; assay type: cell-based
Protocol: as §1, §2

Staphylococcus aureus = assay: MIC, single disc method; assay type: cell-based
Protocol: as §1, §2

[5] = cat, single oral dose 20 mg/kg, capsule of powdered roxithromycin

roxithromycin
half-life [1]: 10 to 12 h | elimination T1/2 [2]: about 73.5 hours | stability in acidic environments [3]: acid labile | time for which serum concentration exceeds the MIC for several bacterial organisms [4]: more than 190 hours | Minimum Inhibitory Concentration (MIC) (Escherichia coli): 32 µg/mL | Minimum Inhibitory Concentration (MIC) (Enterococcus faecalis): 8 µg/mL | Minimum Inhibitory Concentration (MIC) (Bacillus subtilis): 0.25 µg/mL | Minimum Inhibitory Concentration (MIC) (Clostridium perfringes): 2 µg/mL | Minimum Inhibitory Concentration (MIC) (Streptococcus pneumoniae): 0.25 µg/mL | Minimum Inhibitory Concentration (MIC) (Streptococcus pyogenes): 0.25 µg/mL | Minimum Inhibitory Concentration (MIC) (Pasteurella multocida): 1 µg/mL | Minimum Inhibitory Concentration (MIC) (Staphylococcus aureus): 0.25 µg/mL | time for which serum concentration exceeds the MIC for several bacterial organisms [5]: at least 150 hours
